According to ChEMBL document CHEMBL4651402, “Screening of ~5500 FDA-approved drugs and clinical candidates for anti-SARS-CoV-2 activity” (2021):

System: SARS-CoV-2
Test: microbe, parasite or virus in culture
Details: Severe acute respiratory syndrome coronavirus 2, Vero C1008, 48 h

SMILES | IC50 [µM] | IC50 (read-out: pIC50 (converted)) [µM]
CC1C(=O)CC[C@@H]2C1(C)CC[C@H]1C2(C)CCC2(C)C3CC(C)(C)CCC3(C)CCC12C (some centres undefined) | > 20 | > 20
CCOC(=O)[C@H](CCc1ccccc1)N[C@H]1CS[C@H](c2cccs2)CN(CC(=O)O)C1=O [TEMOCAPRIL] | > 20 | > 20
O=C(O)c1cccnc1Nc1cccc(C(F)(F)F)c1 [NIFLUMIC ACID] | > 20 | > 20
Cc1cccc(N2CCN(CCCOc3ccc4ccc(O)nc4c3)CC2)c1C | > 20 | > 20
CCOC(=O)[C@H](C)C[C@@H](Cc1ccc(-c2ccccc2)cc1)NC(=O)CCC(=O)O [SACUBITRIL] | > 20 | > 20
CN1CCC[C@@H]1Cc1c[nH]c2ccc(CCS(=O)(=O)c3ccccc3)cc12 | > 20 | > 20
CCNC(=O)/C=C/c1cccc(Br)c1 [CINROMIDE] | > 20 | > 20
Cc1cc2c(cc1S(N)(=O)=O)S(=O)(=O)CCC2 | > 20 | > 20
CC[C@H](c1ccc(O)cc1)[C@@H](CC)c1ccc(O)cc1 [HEXESTROL] | > 20 | > 20
CCC(=O)OC(OP(=O)(CCCCc1ccccc1)CC(=O)N1C[C@H](C2CCCCC2)C[C@H]1C(=O)O)C(C)C (some centres undefined) | > 20 | > 20
COCCOC(=O)C1=C(C)NC(C)=C(C(=O)OCC=Cc2ccccc2)C1c1cccc([N+](=O)[O-])c1 (centres undefined) | > 20 | > 20
CC(C)CN(C[C@@H](O)[C@H](Cc1ccccc1)NC(=O)O[C@H]1CCOC1)S(=O)(=O)c1ccc(N)cc1 | > 20 | > 20
OC(C1=NCCN1)(c1ccc(Cl)cc1)c1ccccn1 (centres undefined) [DAZADROL] | > 20 | > 20
NC1=NCC(c2ccccc2)O1 (centres undefined) [AMINOREX] | > 100 | > 100
CCOc1cc(-c2nccc3cc(OC)c(OC)cc23)cc(OCC)c1OCC [OCTAVERINE] | > 20 | > 20
CN(C)[C@@H]1[C@@H]2C=CC[C@H]1c1ccccc1C2 | > 20 | > 20
C[N+]1(C)C2CCC1CC(OC(=O)C(O)c1ccccc1)C2 (centres undefined) | > 20 | > 20
COc1ccc(C(=O)c2ccc(C)cc2)c(O)c1 [MEXENONE] | > 20 | > 20
CN(C)CCOc1ccc2c(=O)c3ccc(OCCN(C)C)cc3oc2c1 | > 20 | > 20

SMILES | IC50 [µM] | IC50 (read-out: pIC50 (converted)) [µM]
CC(C(=O)O)c1ccc(N2Cc3ccccc3C2=O)cc1 (centres undefined) [INDOPROFEN] | > 20 | > 20
NS(=O)(=O)c1cc(C2(O)NC(=O)c3ccccc32)ccc1Cl (centres undefined) [CHLORTHALIDONE] | > 20 | > 20
NC(CO)C(=O)NNCc1ccc(O)c(O)c1O (centres undefined) [BENSERAZIDE] | > 20 | > 20
Cc1ccc(O)cc1 [p-CRESOL] | > 20 | > 20
CCN1C[C@]2(C)CC[C@H](O)[C@@]34[C@@H]5C[C@H]6[C@H](O)[C@@H]5[C@](O)(C[C@@H]6OC)[C@@H](C[C@H]23)[C@H]14 | > 20 | > 20
NCC1CCC(C(=O)O)CC1 (centres undefined) | > 20 | > 20
O=c1c(O)c(-c2ccccc2)oc2cc(O)ccc12 [3,7-DIHYDROXYFLAVONE] | > 20 | > 20
CN(C)S(=O)(=O)c1ccc2c(c1)N(C1CN3CCC1CC3)c1ccccc1S2 (centres undefined) [QUISULTAZINE] | > 20 | > 20
OCC(O)C(O)C(O)C(O)C(O)CO (centres undefined) [PERSEITOL] | > 20 | > 20
CCN(CC)CCOC(=O)C1(C2CCCCC2)CCCCC1 [DICYCLOMINE] | > 20 | > 20
Cc1ncc(C[n+]2csc(CCO)c2C)c(N)n1 [THIAMINE ION] | > 20 | > 20
c1ccc([C@@H]2CN=C3NCCN32)cc1 | > 20 | > 20
COc1cccc([C@H](O)C2CCN(CCc3ccc(F)cc3)CC2)c1OC [VOLINANSERIN] | > 20 | > 20
CC(=O)NC1(c2ccccc2)CCN(CC[C@@H](CN(C)C(=O)c2ccccc2)c2ccc(Cl)c(Cl)c2)CC1 | > 20 | > 20
O=C(NCCc1ccc(O)c(O)c1)C12CC3CC(CC(C3)C1)C2 [DOPAMANTINE] | > 20 | > 20
CCn1nc(C(=O)O)c(=O)c2cc3c(cc21)OCO3 [CINOXACIN] | > 20 | > 20
CS(=O)(=O)c1ccc(-c2cn3ccccc3n2)cc1 [ZOLIMIDINE] | > 20 | > 20
O=C1c2ccccc2CN2C(=O)c3ccccc3CN12 [DIFTALONE] | > 20 | > 20
